Results: US5281263A, “Azo dyes containing a carboxy group” (Imperial Chemical Industries PLC, priority 1991, dated 1994)
Values after ≈ are worked out from the molar mass of the structure shown.

How the values were obtained:
[1] = absorption of the dye: lambda max and E max; assay type: physicochemical
[2] = solubility of the dye in water; assay type: physicochemical

In the case of `O=C(O)c1ccc(Nc2ccc3cc(S(=O)(=O)O)c(N=Nc4ccc(N=Nc5cccc(C(=O)O)c5)c5ccccc45)c(O)c3c2)cc1` [Example 1], the E max [1] is reported as “about 24,500”, the lambda max [1] is reported as 558 nm and the solubility ([2]; 25° C., pH 9.5) is reported as roughly 80 mg/mL (≈ 121 mM).
With `O=C(O)c1ccc(N=Nc2ccc(N=Nc3c(S(=O)(=O)O)cc4ccc(Nc5ccc(C(=O)O)cc5)cc4c3O)c3ccccc23)cc1` [Example 2] the E max [1] was “about 22,000”, the lambda max [1] was 567 nm and the solubility ([2]; 25° C.) was roughly 80 mg/mL (≈ 121 mM).
With `O=C(O)c1ccc(N=Nc2ccc(N=Nc3c(S(=O)(=O)O)cc4ccc(Nc5cccc(C(=O)O)c5)cc4c3O)c3ccccc23)cc1` [Example 3] the E max [1] was “about 23,500”, the lambda max [1] was 553 nm and the solubility ([2]; temperature and pH not given) was roughly 80 mg/mL (≈ 121 mM).
In the case of `O=C(O)c1ccc(Nc2ccc3cc(S(=O)(=O)O)c(N=Nc4ccc(N=Nc5cccc(C(=O)O)c5)c5ccc(S(=O)(=O)O)cc45)c(O)c3c2)cc1` [Example 4], the E max [1] is reported as “about 24,000”, the lambda max [1] is reported as 588 nm and the solubility ([2]; 25° C., pH 8.5) is reported as 130 to 150 mg/mL (≈ 175 to 202 mM).
For `O=C(O)c1cccc(N=Nc2ccc(N=Nc3c(S(=O)(=O)O)cc4ccc(Nc5cccc(C(=O)O)c5)cc4c3O)c3cc(S(=O)(=O)O)ccc23)c1` [Example 6], the E max [1] was “about 15,000”, the lambda max [1] was 578 nm and the solubility ([2]; temperature and pH not given) was roughly 100 mg/mL (≈ 135 mM).
